These results are taken from patent publication US20070032477A1, “Pteridine derivatives useful for making pharmaceutical compositions” (priority 2003, published 2007).

In this experiment the test system is TNBS-induced colitis in C57 BL/6 male mice. Description: Trinitrobenzenesulfonate-induced colitis test in mice (Example 210). The experiment is classed as in vivo. As to the method: C57 BL/6 male mice (4-5 weeks) were obtained from M&B (Denmark), bred under standard pathogen-free conditions and maintained in the certified animal facility of the University Hospital Gasthuisberg, Catholic University of Leuven (Leuven, Belgium). Experiments were approved by the local Ethical Committee of Animal Experimentation. Colitis was induced by rectal administration of 1 mg trinitrobenzenesulphonate (hereinafter referred as TNBS) in 50% ethanol with 2 times pre-sensitization. Briefly, mice were sensitized twice 10 days and 5 days before challenge. For sensitization, a 2×2 cm field of the abdominal skin was shaved, and 100 μl of 5 mg TNBS in 50% ethanol solution was applied. On the day of challenge, mice were first lightly anesthetized with metofane, subsequently TNBS was administered per rectum via a round-tip needle equipped with a 1-ml syringe. The tip of the needle was inserted so that the tip was 3.5 to 4 cm proximal to the anal verge and TNBS was injected with a total volume of 100 μl. To ensure distribution of TNBS within the entire colon and cecum, mice were held in a vertical position for 1 minute after the injection.
The compound of example 17 (2-amino-4-[(N-phenoxyacetyl)-piperazin-1-yl]-6-(3,4-dimethoxy-phenyl)pteridine) was given by daily intra-peritoneal injection at the dose of 20 mg/kg (400 μg dissolved in 100 μl PBS with 10% DMSO). Control mice were treated with vehicle only. Body weights of all animals were recorded daily in order to follow the development of inflammatory colitis over a period of 10 days.
Both macroscopic and microscopic histology evaluations were performed as follows. Briefly, mice were sacrificed at day 2 by cervical […], the colon was excised and was immediately examined visually, and damage was scored on a 0-12 scale, as described previously by Shen et al. in Int. Immunopharmacol. (2004), 4:939-951. Colon sections were then fixed in 6% formalin and embedded in paraffin, cut into sections, and then stained with hematoxylin and eosin. Stained sections were examined for evidence of colitis using as criteria the presence of cell infiltration, elongation and/or distortion of crypts, crypt abscesses, reduction in goblet cell number, frank ulceration, and edema formation.
Myeloperoxidase (MPO) activity was measured as described previously by Shen et al. (cited supra). Briefly, two days after intracolonic injection of TNBS, 50 mg colon was removed, homogenised and sonicated on ice. Samples were frozen in liquid nitrogen and subsequently thawed in a water bath at 37° C., each step lasted 3 minutes and the procedure was repeated for two cycles. After centrifugation an aliquot of the supernatant was then allowed to react with a solution of tetra-methyl-benzidine (1.6 mM) and 0.1 mM H2O2. The rate of change in absorbance was measured spectrophotometrically at 460 nm. MPO activity was defined as the quantity of enzyme degrading 1 μmol of peroxide/minute at 37° C. and was expressed in units per gram weight of wet tissue. Sample enzyme activity was measured from a standard curve of known MPO unit activity (assay sensitivity 5×10^−7 units per well).
Serum levels of antibodies generated against TNBS were measured in the mouse sera on the 10th day after disease induction by enzyme-linked immunosorbent assay (ELISA). The ELISA method used herein is as reported in detail by Shen et al (cited supra).
Quantitative Reverse Transcriptase (RT)-PCR for cytokine mRNA was performed as follows: part of the colon removed on day 2 after TNBS application was immediately frozen in liquid nitrogen after dissection and stored at −70° C. until extraction of total RNA using the method of Shen et al (cited supra). A constant amount of 1 μg of total RNA was used for oligo-(dT)-primed cDNA synthesis (Ready-to-go-kit, Pharmacia, Uppsala, Sweden). After 90 minutes at 37° C., the reverse transcriptase was inactivated by incubating the cDNA samples for 5 minutes at 95° C. […]

Turning to `COc1ccc(-c2cnc3nc(N)nc(N4CCN(C(=O)COc5ccccc5)CC4)c3n2)cc1OC` [Example 17, 2-amino-4-[(N-phenoxyacetyl)-piperazin-1-yl]-6-(3,4-dimethoxy-phenyl)pteridine], the “days required to recover original body weight” value (daily i.p. 20 mg/kg) is reported as 6 days. The microscopic score (daily i.p. 20 mg/kg, day 2) is 6.0±0.7. The molecule also had an average macroscopic score (daily i.p. 20 mg/kg, day 2, 0-12 scale) of 6.3±0.7. Also, the “MPO activity in colon” value (daily i.p. 20 mg/kg, two days after TNBS) was determined as 8.9±2.0 U/g. Further, the “reduction in average macroscopic score” value (daily i.p. 20 mg/kg, versus control mice) is recorded as 30%. In addition, the “cytokine mRNA levels for TNF-α, IL-18 and IFN-γ in colon” value (day 2, differences did not reach statistical significance) is “all reduced”. The “Anti-TNBS antibody (IgG2a) levels” value (serum, after treatment) is given as 76.6±3.3 OD. The “Anti-TNBS antibody (IgG1) levels” value (serum, compared to untreated mice) is recorded as “significantly lower”.
